Legend:
Type in all cases: in vivo
[1] = tested on: ABUTH; assay: Pre-emergence Test, ABUTH; details: 1000 g/ha, evaluated after 13 days
[2] = tested on: Ipornoea hederacea (IPOHE); assay: Pre-emergence Test, IPOHE; details: 1000 g/ha, evaluated after 13 days
[3] = tested on: Ipornoea hederacea (IPOHE); assay: Post-emergence Test, IPOHE; details: sprayed after 8 days cultivation, 1000 g/ha, evaluated after 13 days
Method: (§1) Seeds of a variety of test species are sown in standard soil in pots (Amaranthus retoflexus (AMARE), Solarium nigrum (SOLNI), Setaria faberi (SETFA), Lolium perenne (LOLPE), Echinochloa crus-galli (ECHCG), Ipornoea hederacea (IPOHE)). After 8 days cultivation under controlled conditions in a glasshouse (at 24° C./16° C., day/night; 14 hours light; 65% humidity), the plants are sprayed with an aqueous spray solution derived from the formulation of the technical active ingredient in acetone/water (50:50) solution containing 0.5% Tween 20 (polyoxyethylene sorbitan monolaurate, CAS RN 9005-64-5). Compounds are applied at 1000 g/ha unless otherwise stated. The test plants are then grown in a glasshouse under controlled conditions in a glasshouse (at 24° C./16° C., day/night; 14 hours light; 65% humidity) and watered twice daily. After 13 days the test is evaluated for the percentage damage caused to the plant. The biological activities are shown in the following table on a five-point scale (5=81-100%; 4=61-80%; 3=41-60%; 2=21-40%; 1=10-20%; 0=0%; −=not tested).

[4] = tested on: ZEAMX; assay: Post-emergence Test, ZEAMX; details: sprayed after 8 days cultivation, 1000 g/ha, evaluated after 13 days
Method: [The procedure below names another target; the source lists this target under the same test.] as §1

[5] = tested on: Setaria faberi (SETFA); assay: Post-emergence Test, SETFA; details: sprayed after 8 days cultivation, 1000 g/ha, evaluated after 13 days
Method: as §1

[6] = tested on: Amaranthus retoflexus (AMARE); assay: Post-emergence Test, AMARE; details: sprayed after 8 days cultivation, 1000 g/ha, evaluated after 13 days
Method: as §1

[7] = tested on: Amaranthus retoflexus (AMARE); assay: Pre-emergence Test, AMARE; details: 1000 g/ha, evaluated after 13 days
[8] = tested on: Setaria faberi (SETFA); assay: Pre-emergence Test, SETFA; details: 1000 g/ha, evaluated after 13 days
[9] = tested on: Echinochloa crus-galli (ECHCG); assay: Pre-emergence Test, ECHCG; details: 1000 g/ha, evaluated after 13 days
[10] = tested on: Echinochloa crus-galli (ECHCG); assay: Post-emergence Test, ECHCG; details: sprayed after 8 days cultivation, 1000 g/ha, evaluated after 13 days
Method: as §1

[11] = tested on: ABUTH; assay: Post-emergence Test, ABUTH; details: sprayed after 8 days cultivation, 1000 g/ha, evaluated after 13 days
Method: [The procedure below names another target; the source lists this target under the same test.] as §1

[12] = tested on: ZEAMX; assay: Pre-emergence Test, ZEAMX; details: 1000 g/ha, evaluated after 13 days

## CCOC(=O)c1nn(-c2ccc(OC(F)(F)F)cc2)c2cccc(-c3cc(C(F)F)on3)c2c1=O [Compound P12, ethyl 5-[5-(difluoromethyl)isoxazol-3-yl]-4-oxo-1-[4-(trifluoromethoxy)phenyl] cinnoline-3-carboxylate]
[1]
  percentage damage caused to the plant, ABUTH: 0 (0=0%)
[2]
  percentage damage caused to the plant, IPOHE: 0 (0=0%)
[3]
  percentage damage caused to the plant, IPOHE: 2 (2=21-40%)
[4]
  percentage damage caused to the plant, ZEAMX: 1 (1=10-20%)
[5]
  percentage damage caused to the plant, SETFA: 2 (2=21-40%)
[6]
  percentage damage caused to the plant, AMARE: 0 (0=0%)
[7]
  percentage damage caused to the plant, AMARE: 0 (0=0%)
[8]
  percentage damage caused to the plant, SETFA: 0 (0=0%)
[9]
  percentage damage caused to the plant, ECHCG: 0 (0=0%)
[10]
  percentage damage caused to the plant, ECHCG: 0 (0=0%)
[11]
  percentage damage caused to the plant, ABUTH: 1 (1=10-20%)

## O=C(O)c1nn(-c2ccc(OC(F)(F)F)cc2)c2cccc(-c3cc(C(F)F)on3)c2c1=O [Compound P13, 5-[5-(difluoromethyl)isoxazol-3-yl]-4-oxo-1-[4-(trifluoromethoxy)phenyl] cinnoline-3-carboxylic acid]
[1]
  percentage damage caused to the plant, ABUTH: 0 (0=0%)
[2]
  percentage damage caused to the plant, IPOHE: 0 (0=0%)
[3]
  percentage damage caused to the plant, IPOHE: 2 (2=21-40%)
[4]
  percentage damage caused to the plant, ZEAMX: 3 (3=41-60%)
[5]
  percentage damage caused to the plant, SETFA: 4 (4=61-80%)
[6]
  percentage damage caused to the plant, AMARE: 1 (1=10-20%)
[7]
  percentage damage caused to the plant, AMARE: 0 (0=0%)
[12]
  percentage damage caused to the plant, ZEAMX: 0 (0=0%)
[8]
  percentage damage caused to the plant, SETFA: 0 (0=0%)
[9]
  percentage damage caused to the plant, ECHCG: 0 (0=0%)
[10]
  percentage damage caused to the plant, ECHCG: 3 (3=41-60%)
[11]
  percentage damage caused to the plant, ABUTH: 0 (0=0%)

## CCOC(=O)c1nn(-c2ccc(OC(F)(F)F)cc2)c2cccc(/C(C)=N/O)c2c1=O [Compound P14, ethyl 5-[(E)-N-hydroxy-C-methyl-carbonimidoyl]-4-oxo-1-[4-(trifluoromethoxy)phenyl] cinnoline-3-carboxylate]
[1]
  percentage damage caused to the plant, ABUTH: 1 (1=10-20%)
[2]
  percentage damage caused to the plant, IPOHE: 0 (0=0%)
[3]
  percentage damage caused to the plant, IPOHE: 1 (1=10-20%)
[4]
  percentage damage caused to the plant, ZEAMX: 4 (4=61-80%)
[5]
  percentage damage caused to the plant, SETFA: 3 (3=41-60%)
[6]
  percentage damage caused to the plant, AMARE: 2 (2=21-40%)
[7]
  percentage damage caused to the plant, AMARE: 1 (1=10-20%)
[12]
  percentage damage caused to the plant, ZEAMX: 2 (2=21-40%)
[8]
  percentage damage caused to the plant, SETFA: 4 (4=61-80%)
[9]
  percentage damage caused to the plant, ECHCG: 4 (4=61-80%)
[10]
  percentage damage caused to the plant, ECHCG: 4 (4=61-80%)
[11]
  percentage damage caused to the plant, ABUTH: 3 (3=41-60%)

## C/C(=N\O)c1cccc2c1c(=O)c(C(=O)O)nn2-c1ccc(OC(F)(F)F)cc1 [Compound P15, 5-[(E)-N-hydroxy-C-methyl-carbonimidoyl]-4-oxo-1-[4-(trifluoromethoxy)phenyl] cinnoline-3-carboxylic acid]
[1]
  percentage damage caused to the plant, ABUTH: 2 (2=21-40%)
[2]
  percentage damage caused to the plant, IPOHE: 0 (0=0%)
[3]
  percentage damage caused to the plant, IPOHE: 3 (3=41-60%)
[4]
  percentage damage caused to the plant, ZEAMX: 3 (3=41-60%)
[5]
  percentage damage caused to the plant, SETFA: 3 (3=41-60%)
[6]
  percentage damage caused to the plant, AMARE: 1 (1=10-20%)
[7]
  percentage damage caused to the plant, AMARE: 2 (2=21-40%)
[12]
  percentage damage caused to the plant, ZEAMX: 3 (3=41-60%)
[8]
  percentage damage caused to the plant, SETFA: 5 (5=81-100%)
[9]
  percentage damage caused to the plant, ECHCG: 4 (4=61-80%)
[10]
  percentage damage caused to the plant, ECHCG: 4 (4=61-80%)
[11]
  percentage damage caused to the plant, ABUTH: 3 (3=41-60%)

## C=Cc1cccc2c1c(=O)c(C(=O)OCC)nn2-c1ccc(OC(F)(F)F)cc1 [Compound P16, ethyl 4-oxo-1-[4-(trifluoromethoxy)phenyl]-5-vinyl-cinnoline-3-carboxylate]
[1]
  percentage damage caused to the plant, ABUTH: 2 (2=21-40%)
[2]
  percentage damage caused to the plant, IPOHE: 1 (1=10-20%)
[3]
  percentage damage caused to the plant, IPOHE: 1 (1=10-20%)
[4]
  percentage damage caused to the plant, ZEAMX: 2 (2=21-40%)
[5]
  percentage damage caused to the plant, SETFA: 4 (4=61-80%)
[6]
  percentage damage caused to the plant, AMARE: 2 (2=21-40%)
[7]
  percentage damage caused to the plant, AMARE: 2 (2=21-40%)
[12]
  percentage damage caused to the plant, ZEAMX: 1 (1=10-20%)
[8]
  percentage damage caused to the plant, SETFA: 3 (3=41-60%)
[9]
  percentage damage caused to the plant, ECHCG: 2 (2=21-40%)
[10]
  percentage damage caused to the plant, ECHCG: 3 (3=41-60%)
[11]
  percentage damage caused to the plant, ABUTH: 1 (1=10-20%)

## CCOC(=O)c1nn(-c2ccc(OC(F)(F)F)cc2)c2cccc([N+](=O)[O-])c2c1=O [Compound P39, ethyl 5-nitro-4-oxo-1-[4-(trifluoromethoxy)phenyl] cinnoline-3-carboxylate]
[1]
  percentage damage caused to the plant, ABUTH: 1 (1=10-20%)
[2]
  percentage damage caused to the plant, IPOHE: 0 (0=0%)
[3]
  percentage damage caused to the plant, IPOHE: 0 (0=0%)
[4]
  percentage damage caused to the plant, ZEAMX: 0 (0=0%)
[5]
  percentage damage caused to the plant, SETFA: 3 (3=41-60%)
[6]
  percentage damage caused to the plant, AMARE: 0 (0=0%)
[7]
  percentage damage caused to the plant, AMARE: 0 (0=0%)
[12]
  percentage damage caused to the plant, ZEAMX: 0 (0=0%)
[8]
  percentage damage caused to the plant, SETFA: 5 (5=81-100%)
[9]
  percentage damage caused to the plant, ECHCG: 2 (2=21-40%)
[10]
  percentage damage caused to the plant, ECHCG: 3 (3=41-60%)

## O=C(O)c1nn(-c2ccc(OC(F)(F)F)cc2)c2cccc([N+](=O)[O-])c2c1=O [Compound P40, 5-nitro-4-oxo-1-[4-(trifluoromethoxy)phenyl] cinnoline-3-carboxylic acid]
[1]
  percentage damage caused to the plant, ABUTH: 3 (3=41-60%)
[2]
  percentage damage caused to the plant, IPOHE: 0 (0=0%)
[3]
  percentage damage caused to the plant, IPOHE: 0 (0=0%)
[4]
  percentage damage caused to the plant, ZEAMX: 1 (1=10-20%)
[5]
  percentage damage caused to the plant, SETFA: 5 (5=81-100%)
[6]
  percentage damage caused to the plant, AMARE: 1 (1=10-20%)
[7]
  percentage damage caused to the plant, AMARE: 2 (2=21-40%)
[12]
  percentage damage caused to the plant, ZEAMX: 0 (0=0%)
[8]
  percentage damage caused to the plant, SETFA: 5 (5=81-100%)
[9]
  percentage damage caused to the plant, ECHCG: 2 (2=21-40%)
[10]
  percentage damage caused to the plant, ECHCG: 3 (3=41-60%)

## COc1ccc(-n2nc(C(=O)O)c(=O)c3c(C#N)cccc32)cc1OC [Compound P41, 5-cyano-1-(3,4-dimethoxyphenyl)-4-oxo-cinnoline-3-carboxylic acid]
[1]
  percentage damage caused to the plant, ABUTH: 0 (0=0%)
[2]
  percentage damage caused to the plant, IPOHE: 0 (0=0%)
[3]
  percentage damage caused to the plant, IPOHE: 1 (1=10-20%)
[4]
  percentage damage caused to the plant, ZEAMX: 0 (0=0%)
[5]
  percentage damage caused to the plant, SETFA: 2 (2=21-40%)
[6]
  percentage damage caused to the plant, AMARE: 0 (0=0%)
[7]
  percentage damage caused to the plant, AMARE: 0 (0=0%)
[12]
  percentage damage caused to the plant, ZEAMX: 0 (0=0%)
[8]
  percentage damage caused to the plant, SETFA: 0 (0=0%)
[9]
  percentage damage caused to the plant, ECHCG: 0 (0=0%)
[11]
  percentage damage caused to the plant, ABUTH: 1 (1=10-20%)

## CCOC(=O)c1nn(-c2ccc(OC)c(OC)c2)c2cccc(C#N)c2c1=O [Compound P42, ethyl 5-cyano-1-(3,4-dimethoxyphenyl)-4-oxo-cinnoline-3-carboxylate]
[1]
  percentage damage caused to the plant, ABUTH: 0 (0=0%)
[2]
  percentage damage caused to the plant, IPOHE: 0 (0=0%)
[3]
  percentage damage caused to the plant, IPOHE: 0 (0=0%)
[4]
  percentage damage caused to the plant, ZEAMX: 0 (0=0%)
[5]
  percentage damage caused to the plant, SETFA: 0 (0=0%)
[6]
  percentage damage caused to the plant, AMARE: 0 (0=0%)
[7]
  percentage damage caused to the plant, AMARE: 0 (0=0%)
[12]
  percentage damage caused to the plant, ZEAMX: 0 (0=0%)
[8]
  percentage damage caused to the plant, SETFA: 0 (0=0%)
[9]
  percentage damage caused to the plant, ECHCG: 0 (0=0%)
[11]
  percentage damage caused to the plant, ABUTH: 0 (0=0%)
